{"source": "patent US20200121704A1", "about": "“METHODS FOR TREATING HYPERTENSION AND ARTERIAL STIFFNESS” (THE REGENTS OF THE UNIVERSITY OF COLORADO, A BODY CORPORATE, priority 2017, published 2020)", "origin": "cited, not measured here", "key": {"[1]": {"test_system": "old mice", "conditions": "supplementation; cited from earlier work"}, "[2]": {"test_system": "Klotho deficient mice", "conditions": "cited from earlier work"}, "[3]": {"test_system": "ET-1", "conditions": "animal models of hypercholesterolemia and cardiac hypertrophy; cited from earlier work"}, "[4]": {"test_system": "endothelial cells", "conditions": "cited from earlier work"}}}
{"compound": "NC(=O)c1ccc[n+]([C@@H]2O[C@H](COP(=O)([O-])O)[C@@H](O)[C@H]2O)c1", "note": "[NMN, nicotinamide mononucleotide]", "values": [{"measurement": "Aortic stiffening", "setting": "[1]", "value": "reverses aortic stiffening in old mice to youthful levels"}]}
{"compound": "O=C(Nc1ccccc1-c1cn2c(CN3CCNCC3)csc2n1)c1cnc2ccccc2n1", "note": "[SRT1720]", "values": [{"measurement": "Development of hypertension", "setting": "[2]; Klotho deficient mice (a model of accelerated aging)", "value": "protects against the development of hypertension"}, {"measurement": "Development of arterial stiffness", "setting": "[2]; klotho deficient mice", "value": "prevented the development of arterial stiffness"}]}
{"compound": "Oc1ccc(C=Cc2cc(O)cc(O)c2)cc1", "note": "[resveratrol]", "values": [{"measurement": "Circulating ET-1 levels", "setting": "[3]", "value": "decreases circulating ET-1 levels"}, {"measurement": "Secretion of ET-1 by endothelial cells", "setting": "[4]", "value": "suppressed"}]}
